Laboratory results published in ChEMBL document CHEMBL3853313, “Iminoguanidines as Allosteric Inhibitors of the Iron-Regulated Heme Oxygenase (HemO) of Pseudomonas aeruginosa” (J Med Chem, 2016).
The source made the active and inactive calls. No cut-off for these calls is given here.

Legend:
[1] = system: Pseudomonas aeruginosa; test: Bactericidal activity against Pseudomonas aeruginosa JSRI-1 clinical isolate after 12 hrs; format: functional; details: JSRI-1, 12 h
[2] = system: Pseudomonas aeruginosa; test: Antibacterial activity against Pseudomonas aeruginosa PAO1 after 12 hrs; format: functional; details: PAO1, 12 h
[3] = target: T1, Heme oxygenase (Pseudomonas aeruginosa) (UniProt O69002); test: Binding affinity to Pseudomonas aeruginosa HemO by STD NMR method
T1 sequence (whole entry): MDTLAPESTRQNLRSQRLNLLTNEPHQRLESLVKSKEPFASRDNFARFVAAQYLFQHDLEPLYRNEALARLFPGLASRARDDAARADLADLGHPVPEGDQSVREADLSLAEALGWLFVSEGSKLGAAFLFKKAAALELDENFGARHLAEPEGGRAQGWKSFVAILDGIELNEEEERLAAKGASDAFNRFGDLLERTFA

[4] = system: Pseudomonas aeruginosa; test: Antibacterial activity against Pseudomonas aeruginosa JSRI-2 clinical isolate after 12 hrs; format: functional; details: JSRI-2, 12 h
[5] = Inhibition of Pseudomonas aeruginosa HemO mutant expressed in Escherichia coli BL21(DE3) assessed as decrease in biliverdin-9alpha-dependent IFP1.4 fluorescence after 16 hrs by spectrophotometric method
[6] = system: Pseudomonas aeruginosa; test: Antibacterial activity against Pseudomonas aeruginosa JSRI-1 clinical isolate after 12 hrs; format: functional; details: JSRI-1, 12 h
[7] = system: Pseudomonas aeruginosa; test: Bactericidal activity against Pseudomonas aeruginosa JSRI-2 clinical isolate after 12 hrs; format: functional; details: JSRI-2, 12 h
[8] = system: Pseudomonas aeruginosa; test: Bactericidal activity against Pseudomonas aeruginosa PAO1 after 12 hrs; format: functional; details: PAO1, 12 h
[9] = target: T1, Heme oxygenase (Pseudomonas aeruginosa); test: Binding affinity to Pseudomonas aeruginosa holo-HemO (53 to 62 residues) at 30 mins by HXMS method
[10] = target: T2, Heme oxygenase (Pseudomonas aeruginosa, UniProt O69002); test: Binding affinity to Pseudomonas aeruginosa HemO by intrinsic fluorescence quenching method
T2 sequence (O69002 whole entry): T1 sequence (whole entry)

[11] = system: Escherichia coli; test: Toxicity in Escherichia coli BL21(DE3) expressing Pseudomonas aeruginosa HemO mutant after 16 hrs by phase contrast microscopy

With `Cl.NC(N)=N/N=C/c1ccccc1Br` the MBC [1] was 500 µg/mL, the MIC50 [2] was 50.1 µg/mL and the Activity [3] was “Active”. The MIC50 [4] was 33.4 µg/mL, the EC50 [5] was 35.3 µM and the MIC50 [6] was 62.9 µg/mL. It also gave an MBC [7] of 250 µg/mL and an MBC [8] of 500 µg/mL.

In the case of `Cl.NC(N)=N/N=C/c1ccc(-c2ccccc2)cc1`, the MBC [1] is reported as 125 µg/mL, the MIC50 [2] is reported as 59.1 µg/mL and the Activity [9] is reported as “Active”. It also gave an MIC50 [4] of 38 µg/mL, an EC50 [5] of 21.9 µM and an MIC50 [6] of 34.6 µg/mL. It also gave an MBC [7] of 62.5 µg/mL, an MBC [8] of 125 µg/mL and a Kd [10] of 6.7 µM.

Compound `Cl.N=C(N)N/N=C/c1cccc(Cl)c1` has an MBC [1] of 500 µg/mL, an MIC50 [2] of 52.4 µg/mL and an MIC50 [4] of 33.5 µg/mL. It also gave an EC50 [5] of 19.4 µM, an MIC50 [6] of 19.2 µg/mL and an MBC [7] of 250 µg/mL. The MBC [8] was 250 µg/mL and the Kd [10] was 8.4 µM.

With `Cl.N=C(N)N/N=C/c1ccc([N+](=O)[O-])cc1` the MBC [1] was 1000 µg/mL, the MIC50 [2] was 72.8 µg/mL and the MIC50 [4] was 47.2 µg/mL. The EC50 [5] was 64.4 µM, the MIC50 [6] was 61.4 µg/mL and the MBC [7] was 125 µg/mL. It also gave an MBC [8] of 1000 µg/mL and a Kd [10] of 6.2 µM.

For `Cl.N=C(N)N/N=C/c1cccc2ccccc12`, the MBC [1] was 250 µg/mL, the MIC50 [2] was 32.1 µg/mL and the MIC50 [4] was 36.1 µg/mL. For the same compound, the EC50 [5] was 52.4 µM, the MIC50 [6] was 30.4 µg/mL and the MBC [7] was 125 µg/mL. It also gave an MBC [8] of 250 µg/mL and a Kd [10] of 12 µM.

Work on `Cl.NC(N)=N/N=C/c1cccc(Br)c1O` yielded an MBC [1] of 1000 µg/mL, an MIC50 [2] of 80.5 µg/mL and an MIC50 [4] of 45.6 µg/mL. For the same compound, the EC50 [5] was 60.3 µM, the MIC50 [6] was 145 µg/mL and the MBC [7] was 250 µg/mL. The MBC [8] was 500 µg/mL and the Kd [10] was 8 µM.

With `Cl.NC(N)=N/N=C/c1ccc(O)cc1` the MBC [1] was over 1000 µg/mL, the MIC50 [2] was 408 µg/mL and the MIC50 [4] was 121 µg/mL. It also gave an EC50 [5] of over 200 µM, an MIC50 [6] of 443 µg/mL and an MBC [7] of over 1000 µg/mL. For the same compound, the MBC [8] was over 1000 µg/mL and the Kd [10] was 4.8 µM.

`Cl.N=C(N)N/N=C/c1ccc(Br)cc1` gave an MBC [1] of 250 µg/mL, an MIC50 [2] of 52.5 µg/mL and an MIC50 [4] of 13.4 µg/mL. The EC50 [5] was 35.6 µM, the MIC50 [6] was 19.7 µg/mL and the MBC [7] was 62.5 µg/mL. For the same compound, the MBC [8] was 250 µg/mL and the Kd [10] was 15 µM.

For `Cl.N=C(N)N/N=C/c1ccc(F)cc1`, the MBC [1] was 1000 µg/mL, the MIC50 [2] was 162 µg/mL and the MIC50 [4] was 69.4 µg/mL. The EC50 [5] was 77.5 µM, the MIC50 [6] was 87.4 µg/mL and the MBC [7] was 500 µg/mL. For the same compound, the MBC [8] was 1000 µg/mL and the Kd [10] was 14 µM.

For `Cl.N=C(N)N/N=C/c1ccc(Cl)cc1`, the MBC [1] was 250 µg/mL, the MIC50 [2] was 49 µg/mL and the MIC50 [4] was 41.6 µg/mL. It also gave an EC50 [5] of 122 µM, an MIC50 [6] of 10.7 µg/mL and an MBC [7] of 62.5 µg/mL. It also gave an MBC [8] of 500 µg/mL and a Kd [10] of 7 µM.

`Cl.N=C(N)N/N=C/c1ccccc1F` showed an MBC [1] of over 1000 µg/mL, an MIC50 [2] of 131 µg/mL and an MIC50 [4] of 72.9 µg/mL. It also gave an EC50 [5] of over 200 µM, an MIC50 [6] of 28.6 µg/mL and an MBC [7] of 250 µg/mL. The MBC [8] was 1000 µg/mL and the Kd [10] was 11 µM.

Compound `Cl.NC(N)=N/N=C/c1ccc(Cl)c(Cl)c1` has an MBC [1] of 125 µg/mL, an MIC50 [2] of 32.3 µg/mL and an MIC50 [4] of 16.4 µg/mL. It also gave an EC50 [5] of 20.3 µM, an MIC50 [6] of 24.1 µg/mL and an MBC [7] of 125 µg/mL. It also gave an MBC [8] of 125 µg/mL and a Kd [10] of 8.4 µM.

In the case of `Cl.NC(N)=N/N=C/c1cc(O)cc(O)c1`, the MIC50 [2] is reported as 1140 µg/mL, the MIC50 [4] is reported as 564 µg/mL and the EC50 [5] is reported as over 200 µM. For the same compound, the MIC50 [6] was 338 µg/mL and the Kd [10] was 8 µM.

Compound `Cl.N=C(N)N/N=C/c1ccc2ccccc2c1` has an MBC [1] of 250 µg/mL, an MIC50 [2] of 48.4 µg/mL and an MIC50 [4] of 75.6 µg/mL. For the same compound, the EC50 [5] was 43.1 µM, the MIC50 [6] was 31.7 µg/mL and the MBC [7] was 125 µg/mL. The MBC [8] was 250 µg/mL.

With `CN(C)c1ccc(/C=N/NC(=N)N)cc1.Cl` the MBC [1] was 1000 µg/mL, the MIC50 [2] was 121 µg/mL and the Activity [11] was “Non-Toxic”. It also gave an MIC50 [4] of 15.5 µg/mL, an EC50 [5] of 123 µM and an MIC50 [6] of 32.5 µg/mL. The MBC [7] was 250 µg/mL, the MBC [8] was 1000 µg/mL and the Kd [10] was 8.8 µM.

In the case of `COc1cccc(/C=N/N=C(N)N)c1.Cl`, the MBC [1] is reported as 1000 µg/mL, the MIC50 [2] is reported as 134 µg/mL and the MIC50 [4] is reported as 93.4 µg/mL. It also gave an MIC50 [6] of 48.6 µg/mL, an MBC [7] of 500 µg/mL and an MBC [8] of over 1000 µg/mL.

For `Cl.NC(N)=N/N=C/c1cccc(F)c1`, the MBC [1] was 1000 µg/mL, the MIC50 [2] was 66.6 µg/mL and the MIC50 [4] was 68.2 µg/mL. It also gave an EC50 [5] of 45.1 µM, an MIC50 [6] of 70 µg/mL and an MBC [7] of 250 µg/mL. For the same compound, the MBC [8] was 1000 µg/mL and the Kd [10] was 12 µM.

With `Cl.N=C(N)N/N=C/c1ccccc1O` the MBC [1] was over 1000 µg/mL, the MIC50 [2] was 123 µg/mL and the Activity [3] was “Active”. For the same compound, the MIC50 [4] was 79.1 µg/mL, the EC50 [5] was 102 µM and the MIC50 [6] was 58.5 µg/mL. The MBC [7] was 250 µg/mL, the MBC [8] was over 1000 µg/mL and the Kd [10] was 9.2 µM.

With `CC(C)c1ccc(/C=N/NC(=N)N)cc1.Cl` the MBC [1] was 125 µg/mL, the MIC50 [2] was 52.3 µg/mL and the MIC50 [4] was 81 µg/mL. The EC50 [5] was 11.3 µM, the MIC50 [6] was 20.6 µg/mL and the MBC [7] was 125 µg/mL. The MBC [8] was 125 µg/mL and the Kd [10] was 5.7 µM.

Compound `N=C(N)N/N=C/c1ccccc1Br` has a Kd [10] of 6.7 µM.

With `COc1ccc(/C=N/NC(=N)N)cc1.Cl` the MBC [1] was 1000 µg/mL, the MIC50 [2] was 113 µg/mL and the MIC50 [4] was 38 µg/mL. For the same compound, the EC50 [5] was 77.4 µM, the MIC50 [6] was 30.5 µg/mL and the MBC [7] was 500 µg/mL. It also gave an MBC [8] of 500 µg/mL and a Kd [10] of 7.8 µM.

Work on `Cl.NC(N)=N/N=C/c1cccc(OCc2ccccc2)c1` yielded an MBC [1] of 125 µg/mL, an MIC50 [2] of 23.2 µg/mL and an MIC50 [4] of 33.9 µg/mL. The EC50 [5] was 34.3 µM, the MIC50 [6] was 25.5 µg/mL and the MBC [7] was 62.5 µg/mL. For the same compound, the MBC [8] was 125 µg/mL.

For `Cl.NC(N)=N/N=C/c1cccc(O)c1`, the MIC50 [2] was 750 µg/mL, the MIC50 [4] was 617 µg/mL and the EC50 [5] was over 200 µM. For the same compound, the MIC50 [6] was 391 µg/mL and the Kd [10] was 21 µM.

With `COc1ccccc1/C=N/NC(=N)N.Cl` the MBC [1] was over 1000 µg/mL, the MIC50 [2] was 99.5 µg/mL and the Activity [3] was “Active”. For the same compound, the MIC50 [4] was 125 µg/mL, the EC50 [5] was 72.7 µM and the MIC50 [6] was 38.4 µg/mL. The MBC [7] was 500 µg/mL and the MBC [8] was 1000 µg/mL.

Work on `Cl.NC(N)=N/N=C/c1cccc(Br)c1` yielded an MBC [1] of 500 µg/mL, an MIC50 [2] of 51.3 µg/mL and an MIC50 [4] of 19.4 µg/mL. It also gave an EC50 [5] of 11.2 µM, an MIC50 [6] of 23 µg/mL and an MBC [7] of 125 µg/mL. It also gave an MBC [8] of 250 µg/mL and a Kd [10] of 12 µM.

With `N=C(N)N/N=C/c1cccc(OCc2ccccc2)c1` the Activity [3] was “Active”.
